Measured values from US20160129011A1, “BICYCLO 2,3-BENZODIAZEPINES AND SPIROCYCLICALLY SUBSTITUTED 2,3-BENZODIAZEPINES” (BAYER PHARMA AKTIENGESELLSCHAFT, priority 2013, published 2016).

Legend:
BRD4 (BD1) = biological target: T1, BRD4 (BD1) (Homo sapiens, UniProt O60885); assay: Binding assay BRD4/acetylated peptide H4 (TR-FRET protein-protein interaction assay); conditions: BRD4 (BD1) / acetylated histone H4 peptide
T1 construct: longer constructs also being possible, preferably amino acids 44-168; made in house; host or cells: E. coli
Source text: To assess the BRD4 binding strength of the substances described in this application, the ability thereof to inhibit the interaction between BRD4 (BD1) and acetylated histone H4 in a dose-dependent manner was quantified.
For this purpose, a time-resolved fluorescence resonance energy transfer (TR-FRET) assay was used, which measures the binding between N-terminally His6-tagged BRD4 (BD1) (amino acids 67-152, longer constructs also being possible, preferably amino acids 44-168) and a synthetic acetylated histone H4 (Ac—H4) peptide with sequence GRGK(Ac)GGK(Ac)GLGK(Ac)GGAK(Ac)RHGSGSK-biotin. The recombinant BRD4 protein produced in-house according to Filippakopoulos et al., Nature, 2010, 468:1119-1123 was expressed in E. coli and purified by means of (Ni-NTA) affinity and (Sephadex G-75) size exclusion chromatography. The Ac—H4 peptide can be purchased, for example, from Biosyntan (Berlin, Germany).
In the assay, typically 11 different concentrations of each substance (0.1 nM, 0.33 nM, 1.1 nM, 3.8 nM, 13 nM, 44 nM, 0.15 μM, 0.51 μM, 1.7 μM, 5.9 μM and 20 μM) were analysed as duplicates on the same microtitre plate. For this purpose, 100-fold concentrated solutions in DMSO were prepared by serial dilutions (1:3.4) of a 2 mM stock solution into a clear, 384-well microtitre plate (Greiner Bio-One, Frickenhausen, Germany). From this, 50 nl were transferred into a black test plate (Greiner Bio-One, Frickenhausen, Germany). The test was started by the addition of 2 μl of a 2.5-fold concentrated BRD4 solution (final concentration typically 10 nM in the 5 μl of reaction volume) in aqueous assay buffer [50 mM HEPES pH 7.5, 50 mM sodium chloride (NaCl), 0.25 mM CHAPS and 0.05% serum albumin (BSA)] to the substances in the test plate. This was followed by a 10-minute incubation step at 22° C. for the pre-equilibration of putative complexes between BRD4 and the substances.
The mixture was then incubated in the dark at 22° C. for one hour and then at 4° C. for at least 3 hours and for no longer than overnight. The formation of BRD4/Ac—H4 complexes was determined by the measurement of the resonance energy transfer from the streptavidin-Eu cryptate to the anti-6His-XL665 antibody present in the reaction. For this purpose, the fluorescence emission was measured at 620 nm and 665 nm after excitation at 330-350 nm in a TR-FRET measuring instrument, for example a Rubystar or Pherastar (both from BMG Lab Technologies, Offenburg, Germany) or a Viewlux (Perkin-Elmer). The ratio of the emissions at 665 nm and at […] was taken as an indicator of the amount of BRD4/Ac—H4 complexes formed.
The data (ratios) obtained were normalized, with 0% inhibition corresponding to the mean from the measurements for a set of controls (typically 32 data points) in which all the reagents were present. In these, in place of test substances, 50 nl of DMSO (100%) were used. Inhibition of 100% corresponded to the mean from the measurements for a set of controls (typically 32 data points) in which all the reagents except BRD4 were present. The IC50 was determined by regression analysis based on a 4-parameter equation (minimum, maximum, IC50, Hill; Y=max+(min−max)/(1+(X/IC50)^Hill)).

MOLM-13 cells = assay: Cell proliferation assay (alamarBlue), MOLM-13; type: cell-based; conditions: Homo sapiens, MOLM-13; acute myeloid leukaemia cell line, 96 h incubation
Procedure: (§1) In accordance with the invention, the ability of the substances to inhibit cell proliferation was determined. Cell viability was determined by means of the alamarBlue® reagent (Invitrogen) in a Victor X3 Multilabel Reader (Perkin Elmer). The excitation wavelength was 530 nm and the emission wavelength […].
The MOLM-13 cells (DSMZ, ACC 554) were sown at a concentration of 4000 cells/well in 100 μl of growth medium (RPMI1640, 10% FCS) on 96-well microtitre plates.
(§2) The MDA-MB-231 cells (DSMZ, ACC 732) were sown at a concentration of 4000 cells/well in 100 μl of growth medium (DMEM/Ham's F12 medium, 10% FCS) on 96-well microtitre plates. After overnight incubation at 37° C., the fluorescence values (CI values) were determined. Then the plates were treated with various substance dilutions (1E-5 M, 3E-6 M, 1E-6 M, 3E-7 M, 1E-7 M, 3E-8 M, 1E-8 M) and incubated at 37° C. for 72 (MV4-11, LOX-IMVI cells), 96 (MOLM-13, B16F10, […] cells), 120 (MOLP-8, KMS-12-PE cells) or 168 (LAPC-4 cells) hours. Subsequently, the fluorescence values were determined (CO values). For the data analysis, the CI values were subtracted from the CO values and the results were compared between cells which had been treated with various dilutions of the substance or only with buffer solution. This was used to calculate the IC50 values (substance concentration required for 50% inhibition of cell proliferation).
(§3) The substances were examined in the cell lines of Table 1 which, in an exemplary manner, represent the stated indications: […]

B16F10 cells = assay: Cell proliferation assay (alamarBlue), B16F10; type: cell-based; conditions: Mus musculus, B16-F10; melanoma (BRAF wild-type) cell line, 96 h incubation
Procedure: as §1
The B16F10 cells (ATCC, CRL-6475) were sown at a concentration of 300-500 cells/well in 100 μl of growth medium (DMEM with phenol red, 10% FCS) on 96-well microtitre plates.
as §2, §3

MOLP-8 cells = assay: Cell proliferation assay (alamarBlue), MOLP-8; type: cell-based; conditions: Homo sapiens, MOLP-8; multiple myeloma cell line, 120 h incubation
Procedure: as §1
The MOLP-8 cells (DSMZ, ACC 569) were sown at a concentration of 4000 cells/well in 100 μl of growth medium (RPMI1640, 20% FCS) on 96-well microtitre plates.
as §2, §3

Row | IC50 (BRD4 (BD1)) | IC50 (MOLM-13 cells) | IC50 (B16F10 cells) | Compound | IC50 (MOLP-8 cells)
1 | 170 nM | 330 nM | 260 nM | CNC(=O)N1N=C(c2cccc(N3CC4(CCS4(=O)=O)C3)c2)c2cc(OC)c(OC)cc2CC1C (racemic) [Example 14, 1-[3-(1,1-dioxido-1-thia-6-azaspiro[3.3]hept-6-yl)phenyl]-7,8-dimethoxy-N,4-dimethyl-4,5-dihydro-3H-2,3-benzodiazepine-3-carboxamide] | 240 nM
2 | 110 nM | 480 nM | 350 nM | CNC(=O)N1N=C(c2ccc(-c3ccc4c(c3)OCO4)cc2)c2cc(OC)c(OC)cc2CC1C (racemic) [Example 27, (±)-1-[4-(1,3-benzodioxol-5-yl)phenyl]-7,8-dimethoxy-N,4-dimethyl-4,5-dihydro-3H-2,3-benzodiazepine-3-carboxamide] | 460 nM
3 | 10 nM | 100 nM | 80 nM | CNC(=O)N1N=C(c2ccc(N3CC4(CCS4(=O)=O)C3)cc2)c2cc(-n3nc(C)cc3C)ccc2C[C@@H]1C [Example 17.2, (4S)-8-(3,5-Dimethyl-1H-pyrazol-1-yl)-1-[4-(1,1-dioxido-1-thia-6-azaspiro[3.3]hept-6-yl)phenyl]-N,4-dimethyl-4,5-dihydro-3H-2,3-benzodiazepine-3-carboxamide] | 60 nM
4 | 80 nM | 150 nM | 150 nM | CNC(=O)N1N=C(c2ccc(N3CC4(CN(Cc5ccccc5)C4)C3)cc2)c2cc(OC)c(OC)cc2CC1C (racemic) [Example 10, (±)-1-[4-(6-benzyl-2,6-diazaspiro[3.3]hept-2-yl)phenyl]-7,8-dimethoxy-N,4-dimethyl-4,5-dihydro-3H-2,3-benzodiazepine-3-carboxamide] | 80 nM
5 | 250 nM | 600 nM | 590 nM | CNC(=O)N1N=C(c2ccc(F)c(N3CC4(CCS4(=O)=O)C3)c2)c2cc(OC)c(OC)cc2CC1C (racemic) [Example 15, (±)-1-[3-(1,1-dioxido-1-thia-6-azaspiro[3.3]hept-6-yl)-4-fluorophenyl]-7,8-dimethoxy-N,4-dimethyl-4,5-dihydro-3H-2,3-benzodiazepine-3-carboxamide] | 480 nM
6 | 170 nM | 420 nM | 420 nM | CNC(=O)N1N=C(c2ccc(N3CC4(CCC4)C3)cc2)c2cc(OC)c(OC)cc2CC1C (racemic) [Example 37, (±)-1-[4-(2-Azaspiro[3.3]hept-2-yl)phenyl]-7,8-dimethoxy-N,4-dimethyl-4,5-dihydro-3H-2,3-benzodiazepine-3-carboxamide] | 450 nM
7 | 60 nM | 160 nM | 100 nM | CNC(=O)N1N=C(c2ccc(N3CCCC4(COC4)C3)cc2)c2cc(OC)c(OC)cc2CC1C (racemic) [Example 11, (±)-7,8-dimethoxy-N,4-dimethyl-1-[4-(2-oxa-6-azaspiro[3.5]non-6-yl)phenyl]-4,5-dihydro-3H-2,3-benzodiazepine-3-carboxamide] | 100 nM
8 | 140 nM | 170 nM | 150 nM | CNC(=O)N1N=C(c2ccc(N3C[C@@H]4C[C@H]3CN4)cc2)c2cc(OC)c(OC)cc2CC1C (relative stereo) [Example 19, [1S-(1R*,4R*)]-1-[4-(2,5-Diazabicyclo[2.2.1]hept-2-yl)phenyl]-7,8-dimethoxy-4,5-dihydro-N,4-dimethyl-3H-2,3-benzodiazepine-3-carboxamide] | 100 nM
9 | 10 nM | 30 nM | 30 nM | CNC(=O)N1N=C(c2ccc(N3CC4(CCS4(=O)=O)C3)cc2)c2cc(OC(F)(F)F)ccc2C[C@@H]1C [Example 18.2, (4S)-1-[4-(1,1-dioxido-1-thia-6-azaspiro[3.3]hept-6-yl)phenyl]-N,4-dimethyl-8-(trifluoromethoxy)-4,5-dihydro-3H-2,3-benzodiazepine-3-carboxamide] | 30 nM
10 | 140 nM | 260 nM | 180 nM | CNC(=O)N1N=C(c2ccc(N3CC4(CN(C(=O)OC(C)(C)C)C4)C3)cc2)c2cc(OC)c(OC)cc2CC1C (racemic) [Example 8, tert-butyl 6-{4-[(±)-7,8-dimethoxy-4-methyl-3-(methylcarbamoyl)-4,5-dihydro-3H-2,3-benzodiazepine-1-yl]phenyl}-2,6-diazaspiro[3.3]heptane-2-carboxylate] | 160 nM
11 | 250 nM | 500 nM | 140 nM | CNC(=O)N1N=C(c2ccc(N3CCC4(CCCC4)CC3)cc2)c2cc(OC)c(OC)cc2CC1C (racemic) [Example 9, (±)-1-[4-(8-azaspiro[4.5]dec-8-yl)phenyl]-7,8-dimethoxy-N,4-dimethyl-4,5-dihydro-3H-2,3-benzodiazepine-3-carboxamide] | 460 nM
12 | 180 nM | 390 nM | 450 nM | CNC(=O)N1N=C(c2ccc(N3C[C@@H]4C[C@H]3CN4C)cc2)c2cc(OC)c(OC)cc2CC1C (relative stereo) [Example 40, [1S-(1R*,4R*)]-7,8-Dimethoxy-N,4-dimethyl-1-[4-(5-methyl-2,5-diazabicyclo[2.2.1]hept-2-yl)phenyl]-4,5-dihydro-3H-2,3-benzodiazepine-3-carboxamide] | 240 nM
13 | 80 nM | 220 nM | 170 nM | CNC(=O)N1N=C(c2ccc(N3CCC4(CC3)COC4)cc2)c2cc(OC)c(OC)cc2CC1C (racemic) [Example 12, (±)-7,8-dimethoxy-N,4-dimethyl-1-[4-(2-oxa-7-azaspiro[3.5]non-7-yl)phenyl]-4,5-dihydro-3H-2,3-benzodiazepine-3-carboxamide] | 140 nM
14 | 410 nM | 1070 nM | 1430 nM | CNC(=O)N1N=C(c2ccc(F)c(N3C[C@@H]4C[C@H]3CN4)c2)c2cc(OC)c(OC)cc2CC1C (relative stereo) [Example 20, [1S-(1R*,4R*)]-1-[3-(2,5-diazabicyclo[2.2.1]hept-2-yl)-4-fluorophenyl]-7,8-dimethoxy-4,5-dihydro-N,4-dimethyl-3H-2,3-benzodiazepine-3-carboxamide] | 770 nM
